pIC50: −log10 of the molar value. Values joined by “and” are separate entries in the source; they are usually repeats but may differ in a detail not shown here. Equal entries are not always repeated.
System: NCI-H196 complex spheroids with HUVEC/MSC, growth % T/C
Assay: Anticancer human tumor NCI-H196 cell line growth inhibition [Asc];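 note: spheroids exposed to compound for 7 days before measurement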;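 for viability, T/C: 100% = DMSO vehicle control wells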
Details: for viability, T/C: stronger effect = lower value
Procedure: Multicellular complex tumor spheroid response to apoptosis pathway targeting inhibitors Alrizomadlin, Pelcitoclax, and Dasminapant in combination with a variety of drugs and investigational agents in selected tumor cell lines
The MDM2 inhibitor alrizomadlin, the Bcl-2/Bcl-xL inhibitor pelcitoclax, and the IAPs inhibitor dasminapant were evaluated both individually and in combination with standard of care and investigational anticancer small molecules within a complex spheroid model of solid tumors. . Complex spheroids include a stromal component modeled by human endothelial cells (HUVEC) and fibroblasts modeled by human mesenchymal stem cells (MSCs). The concentration ranges selected for each drug and investigational agent were based upon clinically achievable concentrations if the clinical Cmax of the agent was known.
Compounds. The drugs and investigational agents: alrizomadlin (APG-115; NSC831270), pelcitoclax (APG-1252; NSC835773), dasminapant (APG-1387;NSC834197), TAK-243 (NSC785004), copanlisib (NSC809693), olaparib (NSC753686), talazoparib (NSC767125), cobimetinib (NSC 768068), eltanexor (KPT-8602, NSC 794443), abemaciclib (NSC 768073), sotorasib (NSC818433), adagrasib (NSC 831453), MRTX-1133 (NSC 836407), Iadademestat (ORY1001, NSC 806812), and RMC-4630 (NSC839698), were obtained from the NCI Developmental Therapeutics Program Chemical Repository. The FDA-approved anticancer drug set is available from the Developmental Therapeutics Program at https://dtp.cancer.gov/organization/dscb/obtaining/available plates.htm. […] The stock solutions were prepared in dimethyl sulfoxide (DMSO, Sigma-Aldrich, St. Louis, MO, cat. D2650) at 800-fold the tested concentration and stored at -70 degrees C prior to their use. All drugs and investigational agents were tested over a range starting from a high concentration at or near the clinical Cmax and decreasing in half-log increments. If the clinical Cmax for an agent had not been determined, the highest concentration tested was 10 microM.
The patient-derived cancer (PDC) cell lines include five colon adenocarcinomas: 186277-243-T-J2-PDC, 616215-338-R-J1-PDC, 439559-082-T-J2-PDC, 463943-066-T-J2-PDC, and 519858-162-T-J1-PDC; three pancreatic carcinomas: 323965-272-R-J2-PDC, 521955-158-R6-J3-PDC, and 521955-158-R2-J5-PDC; two uterine sarcomas: 327498-152-R-J2-PDC and 993429-296-R-J1-PDC; two rhabdomyosarcomas: 755483-174-R-J1-PDC and 772245-204-R-J1-PDC; two soft tissue sarcomas: 126254-015-R-J1-PDC and 494315-158-R-J1-PDC; two malignant fibrous histiocytomas: 317291-083-R-J1-PDC and 596521-263-R-J1-PDC; two breast carcinomas: 171881-019-R-J1-PDC and 885512-296-R-J2-PDC; and one ovarian carcinoma: 6556581-035-R-J-PDC were obtained from the NCI PDMR, (https://pdmr.cancer.gov). The established cell lines HSSY-2 synovial sarcoma (RRID:CVCL 8719), SYO-1 synovial sarcoma (RRID:CVCL_7146), MPNST malignant peripheral neural sheath tumor were obtained from the Sloan Kettering Institute. The following established cell lines were purchased from the American Type Culture Collection (ATCC, Manassas, VA), Sor the received from the NCI repository:, PANC-1 pancreatic carcinoma (CRL-1469, RRID:CVCL_0480), OVCAR-5 ovarian carcinoma (RRID:CVCL_1628), OVCAR-8 ovarian carcinoma (RRID:CVCL_1629), , MCF-7 breast carcinoma (CRL-12584, RRID:CVCL_0031), MDA-MB-231 breast carcinoma (CRL-12532, RRID:CVCL_0062), NCI-H1876 small cell lung carcinoma (CRL-5902, RRID:CVCL_1503), NCI-H510A small cell lung carcinoma (HTB-184, RRID:CVCL_1565), NCI-H1417 (CRL-5869, RRID:CVCL_1469), and NCI-H196 small cell lung carcinoma (CRL-5823, RRID:CVCL_1509). Dr. Peter Houghton (Greehey Children's Cancer Research Institute, University of Texas Health Science Center, San Antonio, TX) provided Rh-18 rhabdomyosarcoma (RRID:CVCL_1659). Pooled donor human umbilical vein endothelial cells (HUVEC, Lonza, cat. CC-2519) and human mesenchymal stem cells (hMSC, Lonza, cat. PT-2501) were purchased from Lonza (Walkersville, MD).
Cell Culture. […]

[1] = curve of first compound, second compound 0.01 µM
[2] = curve of first compound, second compound 0.0316 µM
[3] = curve of first compound, second compound 0.1 µM
[4] = curve of first compound, second compound 0.316 µM
[5] = curve of first compound, second compound 1 µM
[6] = second compound 0.01 µM, first compound 0.0316 µM
[7] = second compound 0.01 µM, first compound 0.1 µM
[8] = second compound 0.01 µM, first compound 0.316 µM
[9] = second compound 0.01 µM, first compound 1 µM
[10] = second compound 0.0316 µM, first compound 0.0316 µM
[11] = second compound 0.0316 µM, first compound 0.1 µM
[12] = second compound 0.0316 µM, first compound 0.316 µM
[13] = second compound 0.0316 µM, first compound 1 µM
[14] = second compound 0.1 µM, first compound 0.00316 µM
[15] = second compound 0.1 µM, first compound 0.01 µM
[16] = second compound 0.1 µM, first compound 0.0316 µM
[17] = second compound 0.1 µM, first compound 0.1 µM
[18] = second compound 0.1 µM, first compound 0.316 µM
[19] = second compound 0.1 µM, first compound 1 µM
[20] = second compound 0.316 µM, first compound 0.00316 µM
[21] = second compound 0.316 µM, first compound 0.01 µM
[22] = second compound 0.316 µM, first compound 0.0316 µM
[23] = second compound 0.316 µM, first compound 0.1 µM
[24] = second compound 0.316 µM, first compound 0.316 µM
[25] = second compound 0.316 µM, first compound 1 µM
[26] = second compound 1 µM, first compound 0.00316 µM
[27] = second compound 1 µM, first compound 0.01 µM
[28] = second compound 1 µM, first compound 0.0316 µM
[29] = second compound 1 µM, first compound 0.1 µM
[30] = second compound 1 µM, first compound 0.316 µM
[31] = second compound 1 µM, first compound 1 µM

Work on COc1c(OCCCN2CCOCC2)ccc2c3n(c(=NC(=O)c4cnc(N)nc4)nc12)CCN3 + CNC(C)C(=O)NC1CN(S(=O)(=O)c2cccc(S(=O)(=O)N3CCC4CCC(C(=O)NC(c5ccccc5)c5ccccc5)N4C(=O)C(NC(=O)C(C)NC)C3)c2)CCC2CCC(C(=O)NC(c3ccccc3)c3ccccc3)N2C1=O yielded a pIC50 [1] of over 8.50, a pIC50 [2] of over 8.50 and a pIC50 [3] of over 8.50. For the same molecule, the pIC50 [4] was over 8.50, the pIC50 [5] was over 8.50 and the viability, T/C (second compound 0.01 µM, first compound 0.00316 µM) was 5.54%. The viability, T/C (second compound 0.01 µM, first compound 0.01 µM) was 4.98%, the viability, T/C [6] was 5.78% and the viability, T/C [7] was 6.94%. For the same molecule, the viability, T/C [8] was 10.4%, the viability, T/C [9] was 12.5% and the viability, T/C (second compound 0.0316 µM, first compound 0.00316 µM) was 4.98%. It also gave a viability, T/C (second compound 0.0316 µM, first compound 0.01 µM) of 5.47%, a viability, T/C [10] of 4.38% and a viability, T/C [11] of 4.6%. The viability, T/C [12] was 5.64%, the viability, T/C [13] was 9.69% and the viability, T/C [14] was 2.54%. It also gave a viability, T/C [15] of 3.24%, a viability, T/C [16] of 3.31% and a viability, T/C [17] of 2.53%. For the same molecule, the viability, T/C [18] was 5.11%, the viability, T/C [19] was 4.24% and the viability, T/C [20] was 3.55%. For the same molecule, the viability, T/C [21] was 2.22%, the viability, T/C [22] was 1.86% and the viability, T/C [23] was 3.02%. It also gave a viability, T/C [24] of 3.25%, a viability, T/C [25] of 3.07% and a viability, T/C [26] of 2.39%. For the same molecule, the viability, T/C [27] was 2.16%, the viability, T/C [28] was 2.41% and the viability, T/C [29] was 2.12%. It also gave a viability, T/C [30] of 1.61% and a viability, T/C [31] of 2.15%.
For CCN1C(C(=O)NC23CCC(C(=O)O)(CC2)CC3)C(c2cccc(Cl)c2F)C2(C(=O)Nc3cc(Cl)ccc32)C12CCCCC2 (configuration not stated), the viability, T/C (compound 0.00949 µM) was 102% and 98.3%, the viability, T/C (compound 0.03 µM) was 102% [middle of 15 runs] and the viability, T/C (compound 0.0949 µM) was 106% [middle of 15 runs]. The viability, T/C (compound 0.3 µM) was 106% [middle of 15 runs], the viability, T/C (compound 0.949 µM) was 113% [middle of 15 runs] and the pIC50 (compound alone, run of 09/27/2022) was under 5.52. The pIC50 (curve of compound) was under 5.52.
COc1c(OCCCN2CCOCC2)ccc2c3n(c(=NC(=O)c4cnc(N)nc4)nc12)CCN3 + Cc1c(S(C)(=O)=O)c(-c2cc(F)cc(N3CCN(c4ccc(NS(=O)(=O)c5ccc(NC(CCN6CCC(C(=O)OCCCP(=O)(O)O)CC6)CSc6ccccc6)c(S(=O)(=O)C(F)(F)F)c5)cc4)CC3)c2)c(-c2ccc(Cl)cc2)n1C(C)C showed a pIC50 [3] of under 6.00, a pIC50 [4] of under 6.00 and a pIC50 [5] of 6.54. It also gave a pIC50 (curve of first compound, second compound 3.16 µM) of 6.65, a pIC50 (curve of first compound, second compound 10 µM) of 6.88 and a viability, T/C [14] of 96.6%. The viability, T/C [15] was 88.3%, the viability, T/C [16] was 76.4% and the viability, T/C [17] was 77.5%. It also gave a viability, T/C [18] of 59.7%, a viability, T/C [19] of 50.8% and a viability, T/C [20] of 90.6%. For the same molecule, the viability, T/C [21] was 86.8%, the viability, T/C [22] was 82.3% and the viability, T/C [23] was 62.7%. It also gave a viability, T/C [24] of 57.9%, a viability, T/C [25] of 50.7% and a viability, T/C [26] of 88.8%. It also gave a viability, T/C [27] of 86.5%, a viability, T/C [28] of 74.6% and a viability, T/C [29] of 60.5%. It also gave a viability, T/C [30] of 49.3%, a viability, T/C [31] of 43.9% and a viability, T/C (second compound 3.16 µM, first compound 0.00316 µM) of 80%. The viability, T/C (second compound 3.16 µM, first compound 0.01 µM) was 88.7%, the viability, T/C (second compound 3.16 µM, first compound 0.0316 µM) was 72.3% and the viability, T/C (second compound 3.16 µM, first compound 0.1 µM) was 62.8%. The viability, T/C (second compound 3.16 µM, first compound 0.316 µM) was 44.8%, the viability, T/C (second compound 3.16 µM, first compound 1 µM) was 37.4% and the viability, T/C (second compound 10 µM, first compound 0.00316 µM) was 74.2%. For the same molecule, the viability, T/C (second compound 10 µM, first compound 0.01 µM) was 80.1%, the viability, T/C (second compound 10 µM, first compound 0.0316 µM) was 65.7% and the viability, T/C (second compound 10 µM, first compound 0.1 µM) was 52.6%. For the same molecule, the viability, T/C (second compound 10 µM, first compound 0.316 µM) was 41.5% and the viability, T/C (second compound 10 µM, first compound 1 µM) was 32.3%.
C=C(F)C(=O)N1CCN(c2nc(OCC3CCCN3C)nc3c2CCN(c2cccc4cccc(Cl)c24)C3)CC1CC#N (configuration not stated) + CNC(C)C(=O)NC1CN(S(=O)(=O)c2cccc(S(=O)(=O)N3CCC4CCC(C(=O)NC(c5ccccc5)c5ccccc5)N4C(=O)C(NC(=O)C(C)NC)C3)c2)CCC2CCC(C(=O)NC(c3ccccc3)c3ccccc3)N2C1=O gave a pIC50 [1] of over 7.50, a pIC50 [2] of over 7.50 and a pIC50 [3] of over 7.50. For the same molecule, the pIC50 [4] was over 7.50, the pIC50 [5] was over 7.50 and the viability, T/C [6] was 7.36%. For the same molecule, the viability, T/C [7] was 8.05%, the viability, T/C [8] was 5.8% and the viability, T/C [9] was 3.58%. For the same molecule, the viability, T/C (second compound 0.01 µM, first compound 3.16 µM) was 0.83%, the viability, T/C (second compound 0.01 µM, first compound 10 µM) was 0.19% and the viability, T/C [10] was 3.17%. For the same molecule, the viability, T/C [11] was 4.55%, the viability, T/C [12] was 4.1% and the viability, T/C [13] was 3.88%. For the same molecule, the viability, T/C (second compound 0.0316 µM, first compound 3.16 µM) was 0.38%, the viability, T/C (second compound 0.0316 µM, first compound 10 µM) was 0.16% and the viability, T/C [16] was 4.2%. It also gave a viability, T/C [17] of 5.22%, a viability, T/C [18] of 5.23% and a viability, T/C [19] of 3.23%. For the same molecule, the viability, T/C (second compound 0.1 µM, first compound 3.16 µM) was 0.27%, the viability, T/C (second compound 0.1 µM, first compound 10 µM) was 0.18% and the viability, T/C [22] was 4.24%. The viability, T/C [23] was 3.28%, the viability, T/C [24] was 1.71% and the viability, T/C [25] was 2.27%. It also gave a viability, T/C (second compound 0.316 µM, first compound 3.16 µM) of 2.27%, a viability, T/C (second compound 0.316 µM, first compound 10 µM) of 0.18% and a viability, T/C [28] of 3.34%. The viability, T/C [29] was 3.4%, the viability, T/C [30] was 2.52% and the viability, T/C [31] was 1.53%. It also gave a viability, T/C (second compound 1 µM, first compound 3.16 µM) of 0.35% and a viability, T/C (second compound 1 µM, first compound 10 µM) of 0.24%.
